In patent US10233188B2, “CDK2/4/6 inhibitors” (priority 2016, dated 2019):

The compounds below were run against CDK2/Cyclin E1 (Homo sapiens (Human), UniProt P24941) (assay: biochemical). Details: CDK2_Ki (nM), phosphorylated CDK2/Cyclin E1, 150 μM ATP, Morrison tight-binding fit.
Method: The assay was initiated with the addition of ATP, following a fifteen minutes pre-incubation of enzyme and inhibitor at room temperature in the reaction mixture. The reaction was stopped after 45 minutes at room temperature by the addition of 50 μL of 80 mM EDTA, pH 7.5.

Compound | Ki
Cc1cc2cnc(NC3CCN(S(C)(=O)=O)CC3)nc2n([C@H]2CCC[C@H](O)C2)c1=O (single isomer, unassigned) [Example 33, (−)-8-[(1R*,3R*)-3-hydroxycyclohexyl]-6-methyl-2-{[1-(methylsulfonyl)piperidin-4-yl]amino}pyrido[2,3-d]pyrimidin-7(8H)-one] | 42.6 nM
C[C@@]1(O)CCC[C@H]1n1c(=O)ccc2cnc(NC3CCN(S(=O)(=O)NC[C@@H]4CCCO4)CC3)nc21 (single isomer, unassigned) [Example 62, (−)-4-({8-[(1R*,2R*)-2-hydroxy-2-methylcyclopentyl]-7-oxo-7,8-dihydropyrido[2,3-d]pyrimidin-2-yl}amino)-N-[(2S)-tetrahydrofuran-2-ylmethyl]piperidine-1-sulfonamide] | 0.35 nM
C=Cc1cc2cnc(NC3CCN(S(C)(=O)=O)CC3)nc2n(C2CCCC2)c1=O [Example 138, 8-cyclopentyl-6-ethenyl-2-{[1-(methylsulfonyl)piperidin-4-yl]amino}pyrido[2,3-d]pyrimidin-7(8H)-one] | 0.87 nM
C=CCc1cc2cnc(NC3CCN(S(C)(=O)=O)CC3)nc2n(C2CCCC2)c1=O [Example 139, 8-cyclopentyl-2-{[1-(methylsulfonyl)piperidin-4-yl]amino}-6-(prop-2-en-1-yl)pyrido[2,3-d]pyrimidin-7(8H)-one] | 4.05 nM
CNS(=O)(=O)N1CCC(Nc2ncc3cc(C)c(=O)n([C@@H]4CCC[C@H]4O)c3n2)CC1 [Example 55, 4-({8-[(1R,2R)-2-hydroxycyclopentyl]-6-methyl-7-oxo-7,8-dihydropyrido[2,3-d]pyrimidin-2-yl}amino)-N-methylpiperidine-1-sulfonamide] | 4.66 nM
C[C@@]1(O)CCCC1n1c(=O)ccc2cnc(NC3CCN(S(=O)(=O)NC[C@H]4CCCO4)CC3)nc21 (single isomer, unassigned; (-)) [Example 64, (−)-4-({8-[(1R*,2R*)-2-hydroxy-2-methylcyclopentyl]-7-oxo-7,8-dihydropyrido[2,3-d]pyrimidin-2-yl}amino)-N-[(2R)-tetrahydrofuran-2-ylmethyl]piperidine-1-sulfonamide] | 0.35 nM
C[C@]1(O)CCC[C@@H]1n1c(=O)ccc2cnc(NC3CCN(S(=O)(=O)NC[C@H]4CCCO4)CC3)nc21 (single isomer, unassigned) [Example 65, (+)-4-({8-[(1R*,2R*)-2-hydroxy-2-methylcyclopentyl]-7-oxo-7,8-dihydropyrido[2,3-d]pyrimidin-2-yl}amino)-N-[(2R)-tetrahydrofuran-2-ylmethyl]piperidine-1-sulfonamide] | 4.85 nM
Cc1cc2cnc(NC3CCN(S(=O)(=O)N(C)C)CC3)nc2n(C2CCCC2)c1=O [Example 24, 4-[(8-cyclopentyl-6-methyl-7-oxo-7,8-dihydropyrido[2,3-d]pyrimidin-2-yl)amino]-N,N-dimethylpiperidine-1-sulfonamide] | 1.59 nM
C[C@]1(O)CCC[C@@H]1n1c(=O)ccc2cnc(NC3CCN(S(=O)(=O)NC[C@@H]4CCCO4)CC3)nc21 (single isomer, unassigned) [Example 63, (+)-4-({8-[(1R*,2R*)-2-hydroxy-2-methylcyclopentyl]-7-oxo-7,8-dihydropyrido[2,3-d]pyrimidin-2-yl}amino)-N-[(2S)-tetrahydrofuran-2-ylmethyl]piperidine-1-sulfonamide] | 4.51 nM
CN(C)S(=O)(=O)N1CCC(Nc2ncc3cc(CCO)c(=O)n(C4CCCC4)c3n2)CC1 [Example 27, 4-{[8-cyclopentyl-6-(2-hydroxyethyl)-7-oxo-7,8-dihydropyrido[2,3-d]pyrimidin-2-yl]amino}-N,N-dimethylpiperidine-1-sulfonamide] | 3.85 nM
CNS(=O)(=O)N1CCC(Nc2ncc3ccc(=O)n([C@H]4CCC[C@]4(C)O)c3n2)CC1 (single isomer, unassigned) [Example 57, (+)-4-({8-[(1R*,2R*)-2-hydroxy-2-methylcyclopentyl]-7-oxo-7,8-dihydropyrido[2,3-d]pyrimidin-2-yl}amino)-N-methylpiperidine-1-sulfonamide] | 5.21 nM
Cc1cc2cnc(NC3CCN(S(=O)(=O)C(F)F)CC3)nc2n(C2CCCC2)c1=O [Example 26, 8-cyclopentyl-2-({1-[(difluoromethyl)sulfonyl]piperidin-4-yl}amino)-6-methylpyrido[2,3-d]pyrimidin-7(8H)-one] | 3.84 nM
CS(=O)(=O)N1CCC(Nc2ncc3ccc(=O)n([C@@H]4CC[C@@H](O)C4)c3n2)CC1 (single isomer, unassigned) [Example 54, (−)-8-[(1R*,3R*)-3-hydroxycyclopentyl]-2-{[1-(methylsulfonyl)piperidin-4-yl]amino}pyrido[2,3-d]pyrimidin-7(8H)-one] | 1.44 nM
CNS(=O)(=O)N1CCC(Nc2ncc3cc(C)c(=O)n([C@H]4CCC[C@H]4C)c3n2)CC1 [Example 43, N-methyl-4-({6-methyl-8-[(1S,2R)-2-methylcyclopentyl]-7-oxo-7,8-dihydropyrido[2,3-d]pyrimidin-2-yl}amino)piperidine-1-sulfonamide] | 1.56 nM

Continued, values first:

Ki | Compound
1.48 nM | C[C@H]1CC[C@@H](O)C[C@@H]1n1c(=O)ccc2cnc(NC3CCN(S(C)(=O)=O)CC3)nc21 [Example 216, 8-[(1S,2S,5R)-5-hydroxy-2-methylcyclohexyl]-2-{[1-(methylsulfonyl)piperidin-4-yl]amino}pyrido[2,3-d]pyrimidin-7(8H)-one]
5.05 nM | C[C@@H]1[C@H](O)CC[C@@H]1n1c(=O)ccc2cnc(NC3CCN(S(C)(=O)=O)CC3)nc21 (single isomer, unassigned) [Example 207, (+)-8-[(1R*,2R*,3S*)-3-hydroxy-2-methylcyclopentyl]-2-{[1-(methylsulfonyl)piperidin-4-yl]amino}pyrido[2,3-d]pyrimidin-7(8H)-one]
135 nM | CS(=O)(=O)N1CC[C@@H](Nc2ncc3cc(CC(N)=O)c(=O)n(C4CCCC4)c3n2)[C@H](F)C1 (single isomer, unassigned) [Example 161, (+)-2-(8-cyclopentyl-2-{[(3S*,4S*)-3-fluoro-1-(methylsulfonyl)piperidin-4-yl]amino}-7-oxo-7,8-dihydropyrido[2,3-d]pyrimidin-6-yl)acetamide]
0.27 nM | Cc1cc2cnc(NC3CCN(S(=O)(=O)NC[C@@H]4CCCO4)CC3)nc2n([C@@H]2CCC[C@@]2(C)O)c1=O (single isomer, unassigned) [Example 100, (−)-4-({8-[(1R*,2R*)-2-hydroxy-2-methylcyclopentyl]-6-methyl-7-oxo-7,8-dihydropyrido[2,3-d]pyrimidin-2-yl}amino)-N-[(2S)-tetrahydrofuran-2-ylmethyl]piperidine-1-sulfonamide]
63.2 nM | CC1(C)CC(Nc2ncc3cc(CCO)c(=O)n(C4CCCC4)c3n2)CCN1S(C)(=O)=O (single isomer, unassigned; (-)) [Example 163, (−)-8-cyclopentyl-2-{[2,2-dimethyl-1-(methylsulfonyl)piperidin-4-yl]amino}-6-(2-hydroxyethyl)pyrido[2,3-d]pyrimidin-7(8H)-one]
17.6 nM | C[C@]1(O)CCC[C@@H]1n1c(=O)ccc2cnc(NC3CCN(S(=O)(=O)C(F)(F)F)CC3)nc21 (single isomer, unassigned) [Example 89, (+)-8-[(1R*,2R*)-2-hydroxy-2-methylcyclopentyl]-2-({1-[(trifluoromethyl)sulfonyl]piperidin-4-yl}amino)pyrido[2,3-d]pyrimidin-7(8H)-one]
0.25 nM | C[C@@]1(O)CCC[C@H]1n1c(=O)ccc2cnc(NC3CCN(S(=O)(=O)C4CCS(=O)(=O)C4)CC3)nc21 (single isomer, unassigned; isomer b) [Example 71]
2.06 nM | C[C@H]1[C@@H](O)CCC[C@@H]1n1c(=O)ccc2cnc(NC3CCN(S(C)(=O)=O)CC3)nc21 (single isomer, unassigned) [Example 222, (+)-8-[(1S*,2R*,3S*)-3-hydroxy-2-methylcyclohexyl]-2-{[1-(methylsulfonyl)piperidin-4-yl]amino}pyrido[2,3-d]pyrimidin-7(8H)-one]
12.4 nM | C[C@@H]1[C@H](n2c(=O)ccc3cnc(NC4CCN(S(C)(=O)=O)CC4)nc32)CC[C@@H]1O (single isomer, unassigned) [Example 208, (−)-8-[(1R*,2R*,3S*)-3-hydroxy-2-methylcyclopentyl]-2-{[1-(methylsulfonyl)piperidin-4-yl]amino}pyrido[2,3-d]pyrimidin-7(8H)-one]
3.46 nM | Cc1cc2cnc(NC3CCN(S(=O)(=O)NC[C@H]4CCCO4)CC3)nc2n([C@H]2CCC[C@]2(C)O)c1=O (single isomer, unassigned) [Example 103, (+)-4-({8-[(1R*,2R*)-2-hydroxy-2-methylcyclopentyl]-6-methyl-7-oxo-7,8-dihydropyrido[2,3-d]pyrimidin-2-yl}amino)-N-[(2R)-tetrahydrofuran-2-ylmethyl]piperidine-1-sulfonamide]
2.29 nM | CS(=O)(=O)N1CCC(Nc2ncc3cc(CC(F)F)c(=O)n(C4CCCC4)c3n2)CC1 [Example 149, 8-cyclopentyl-6-(2,2-difluoroethyl)-2-{[1-(methylsulfonyl)piperidin-4-yl]amino}pyrido[2,3-d]pyrimidin-7(8H)-one]
36 nM | CS(=O)(=O)N1CC[C@@H](Nc2ncc3cc(CCO)c(=O)n(C4CCCC4)c3n2)[C@H](F)C1 (single isomer, unassigned) [Example 157, (+)-8-cyclopentyl-2-{[(3S*,4S*)-3-fluoro-1-(methylsulfonyl)piperidin-4-yl]amino}-6-(2-hydroxyethyl)pyrido[2,3-d]pyrimidin-7(8H)-one]
1.39 nM | CNS(=O)(=O)N1CCC(Nc2ncc3cc(C)c(=O)n([C@H]4CCC[C@]4(C)O)c3n2)CC1 (single isomer, unassigned) [Example 95, (+)-4-({8-[(1R*,2R*)-2-hydroxy-2-methylcyclopentyl]-6-methyl-7-oxo-7,8-dihydropyrido[2,3-d]pyrimidin-2-yl}amino)-N-methylpiperidine-1-sulfonamide]
